Source: the supplement of paper PMC6045584
± gives the standard deviation of the averaged measurements.

Legend:
[1] = compound: CCn1c(C(=O)N(C2CC2)C2CC2)cc2c3c(ncn3C)c(Nc3cc(C)n(C)n3)nc21; test: surviving fraction relative to DMSO-only wells; higher = less growth inhibition; settings: exposure time: 5 days
Method in brief: (§1)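 Viability was determined by CellTiter-Glo luminescence, expressed as surviving fraction normalised to the median of DMSO-only wells. The cells were log-phase tumour cell lines seeded at 250–500 per well in 384-well plates and, after 24 hours, exposed continuously for five days to inhibitors at 0.5, 1, 5, 10, 50, 100, 500 and 1000 nM. Three screens per line were run, keeping only lines with replicate Pearson r >0.7 and median Z' >0.3.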

FORETINIB = compound: COc1cc2c(Oc3ccc(NC(=O)C4(C(=O)Nc5ccc(F)cc5)CC4)cc3F)ccnc2cc1OCCCN1CCOCC1 [FORETINIB]; test: as above; settings: exposure time: 5 days
Method in brief: as §1

Test System | surviving fraction ([1]; 0.5 nM) | surviving fraction ([1]; 1 nM) | surviving fraction ([1]; 5 nM) | surviving fraction ([1]; 10 nM) | surviving fraction ([1]; 50 nM) | surviving fraction ([1]; 100 nM) | surviving fraction ([1]; 500 nM) | surviving fraction ([1]; 1000 nM) | surviving fraction (FORETINIB; 0.5 nM) | surviving fraction (FORETINIB; 1 nM) | surviving fraction (FORETINIB; 5 nM) | surviving fraction (FORETINIB; 10 nM) | surviving fraction (FORETINIB; 50 nM) | surviving fraction (FORETINIB; 100 nM) | surviving fraction (FORETINIB; 500 nM) | surviving fraction (FORETINIB; 1000 nM)
OS25HAL BONE | 0.9497 ± 0.005 | 0.953 ± 0.018 | 0.945 ± 0.015 | 0.952 ± 0.022 | 1.04 ± 0.024 | 1.045 ± 0.0067 | 1.018 ± 0.0064 | 1.01 ± 0.011 | 1.01 ± 0.045 | 1.04 ± 0.032 | 1.08 ± 0.0095 | 1 ± 0.018 | 0.924 ± 0.023 | 0.951 ± 0.031 | 0.375 ± 0.038 | 0.193 ± 0.0084
OSHN BONE | 1.03 ± 0.026 | 1.02 ± 0.016 | 1.03 ± 0.017 | 1.01 ± 0.025 | 1.05 ± 0.041 | 1.03 ± 0.04 | 1.03 ± 0.033 | 0.999 ± 0.023 | 1.08 ± 0.05 | 1.07 ± 0.031 | 1.08 ± 0.018 | 1.05 ± 0.041 | 1.03 ± 0.035 | 1.01 ± 0.039 | 0.735 ± 0.057 | 0.0927 ± 0.013
PCI30 HEADNECK | 0.872 ± 0.024 | 0.74 ± 0.04 | 0.98 ± 0.05 | 1 ± 0.073 | 0.991 ± 0.065 | 1.01 ± 0.026 | 0.964 ± 0.013 | 0.895 ± 0.049 | 1.07 ± 0.09 | 1.1 ± 0.043 | 1.1 ± 0.019 | 1.11 ± 0.045 | 1.04 ± 0.028 | 1.04 ± 0.072 | 0.806 ± 0.056 | 0.484 ± 0.0076
RDES SOFT TISSUE | 1.24 ± 0.11 | 1.2 ± 0.16 | 1.33 ± 0.071 | 1.27 ± 0.024 | 1.26 ± 0.12 | 1.19 ± 0.13 | 1.22 ± 0.13 | 1.39 ± 0.12 | 1.31 ± 0.058 | 1.25 ± 0.13 | 1.17 ± 0.088 | 1.07 ± 0.065 | 0.989 ± 0.12 | 0.892 ± 0.092 | 0.226 ± 0.013 | 0.106 ± 0.0059
S68 BREAST | 1.1 ± 0.39 | 0.683 ± 0.17 | 0.816 ± 0.16 | 0.974 ± 0.13 | 1.35 ± 0.11 | 0.945 ± 0.054 | 0.823 ± 0.016 | 0.817 ± 0.11 | 0.862 ± 0.072 | 0.875 ± 0.33 | 1.35 ± 0.14 | 0.916 ± 0.15 | 1.05 ± 0.082 | 0.78 ± 0.059 | 0.313 ± 0.025 | 0.331 ± 0.077
SAOS2 BONE | 1 ± 0.061 | 0.97 ± 0.011 | 1.06 ± 0.12 | 0.96 ± 0.031 | 1.12 ± 0.02 | 1.05 ± 0.069 | 1.05 ± 0.072 | 1.04 ± 0.091 | 1.17 ± 0.045 | 1.12 ± 0.072 | 1.12 ± 0.048 | 1.17 ± 0.069 | 1.15 ± 0.15 | 1.08 ± 0.15 | 0.611 ± 0.082 | 0.162 ± 0.03
SCC003 HEADNECK | 0.92 ± 0.15 | 0.937 ± 0.047 | 1.02 ± 0.095 | 0.968 ± 0.015 | 1.11 ± 0.099 | 1.12 ± 0.12 | 0.917 ± 0.12 | 0.928 ± 0.045 | 1.09 ± 0.068 | 1.14 ± 0.033 | 1.12 ± 0.074 | 1.11 ± 0.038 | 1.04 ± 0.066 | 1.06 ± 0.088 | 0.912 ± 0.046 | 0.485 ± 0.0087
SCC36 HEADNECK | 0.87 ± 0.045 | 1.07 ± 0.1 | 1.12 ± 0.077 | 1.11 ± 0.044 | 1.12 ± 0.073 | 1.04 ± 0.032 | 1.07 ± 0.093 | 0.962 ± 0.057 | 1.06 ± 0.11 | 1.11 ± 0.13 | 1.17 ± 0.02 | 1.13 ± 0.047 | 1.115 ± 0.0078 | 1.08 ± 0.061 | 0.742 ± 0.084 | 0.41 ± 0.035
SCC47 HEADNECK | 0.86 ± 0.014 | 0.823 ± 0.037 | 0.995 ± 0.094 | 0.968 ± 0.1 | 0.99 ± 0.063 | 1.06 ± 0.072 | 0.88 ± 0.016 | 0.916 ± 0.12 | 1.17 ± 0.042 | 1.2 ± 0.09 | 1.18 ± 0.029 | 1.19 ± 0.06 | 1.12 ± 0.014 | 1.02 ± 0.035 | 0.97 ± 0.047 | 0.51 ± 0.024
SCC90 HEADNECK | 0.826 ± 0.041 | 0.929 ± 0.046 | 1.05 ± 0.14 | 0.964 ± 0.091 | 0.976 ± 0.04 | 1.01 ± 0.13 | 0.875 ± 0.093 | 0.922 ± 0.061 | 1.08 ± 0.073 | 1.02 ± 0.045 | 1.1 ± 0.19 | 1.08 ± 0.071 | 1.23 ± 0.061 | 1.12 ± 0.12 | 0.753 ± 0.077 | 0.753 ± 0.25
